Measurements published in ChEMBL document CHEMBL1201862, “PubChem BioAssay data set” (2004).
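Step 1: Grow cells in 96-well plates. Step 2: Expose to compound for 48 hours at 5 concentrations. Step 3: Interpolate endpoints linearly; if unreached, use highest concentration. GI50 is the concentration that inhibits growth by half.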 The source made the active and inactive calls. Rule as the data show it: active = GI50 up to about 1.1 µM and inactive = higher.

Key:
Test in all cases: inhibition of tumour cell growth, NCI panel, 48 h
[1] = test system: ACHN
[2] = test system: BT-549
[3] = test system: CAKI-1
[4] = test system: COLO 205
[5] = test system: HCC 2998
[6] = test system: HCT-116
[7] = test system: HL-60
[8] = test system: HOP-92
[9] = test system: MCF7
[10] = test system: MDA-MB-435
[11] = test system: NCI-H23
[12] = test system: NCI-H460
[13] = test system: OVCAR-3
[14] = test system: RXF 393
[15] = test system: SF-268
[16] = test system: SF-539
[17] = test system: SK-MEL-5
[18] = test system: SR
[19] = test system: SW-620
[20] = test system: TK-10

Cc1ccc(S(=O)(=O)N2C[C@@H]3CC[C@]4(CO[Si](C)(C)C(C)(C)C)N[C@@H](c5ccccc5)[C@H]2[C@H]34)cc1
GI50 [1]: 37.2 µM (inactive) | GI50 [2]: 20.4 µM (inactive) | GI50 [3]: 27.2 µM (inactive) | GI50 [4]: 17.6 µM (inactive) | GI50 [5]: 18.4 µM (inactive) | GI50 [6]: 12 µM (inactive) | GI50 [7]: 12.7 µM (inactive) | GI50 [8]: 3.44 µM (inactive) | GI50 [9]: 28.6 µM (inactive) | GI50 [10]: 39.2 µM (inactive) | GI50 [11]: 11.4 µM (inactive) | GI50 [12]: 26.1 µM (inactive) | GI50 [13]: 32 µM (inactive) | GI50 [14]: 14.5 µM (inactive) | GI50 [15]: 45.7 µM (inactive) | GI50 [16]: 32.4 µM (inactive) | GI50 [17]: 13.8 µM (inactive) | GI50 [18]: 16.2 µM (inactive) | GI50 [19]: 47.3 µM (inactive) | GI50 [20]: 38.5 µM (inactive)

Cc1cc(C)c2c(=O)cc(-c3ccccc3)[nH]c2c1
GI50 [1]: 4.65 µM (inactive) | GI50 [2]: 7.45 µM (inactive) | GI50 [3]: 3.29 µM (inactive) | GI50 [4]: 1.17 µM (inactive) | GI50 [5]: 1.38 µM (inactive) | GI50 [6]: 0.889 µM (active) | GI50 [7]: 0.479 µM (active) | GI50 [8]: 19.1 µM (inactive) | GI50 [9]: 3.01 µM (inactive) | GI50 [10]: 0.211 µM (active) | GI50 [11]: 2.66 µM (inactive) | GI50 [12]: 1.92 µM (inactive) | GI50 [13]: 3.47 µM (inactive) | GI50 [14]: 1.61 µM (inactive) | GI50 [15]: 7.82 µM (inactive) | GI50 [16]: 2.31 µM (inactive) | GI50 [17]: 1.3 µM (inactive) | GI50 [18]: 2.01 µM (inactive) | GI50 [19]: 0.738 µM (active) | GI50 [20]: 7.05 µM (inactive)

O=c1oc2ccccc2cc1-c1nc2ccccc2c(=O)[nH]1
GI50 [1]: 90.8 µM (inactive) | GI50 [2]: 77.8 µM (inactive) | GI50 [3]: > 100 µM (inactive) | GI50 [4]: > 100 µM (inactive) | GI50 [5]: > 100 µM (inactive) | GI50 [6]: > 100 µM (inactive) | GI50 [7]: 21.9 µM (inactive) | GI50 [8]: > 100 µM (inactive) | GI50 [9]: 12 µM (inactive) | GI50 [10]: > 100 µM (inactive) | GI50 [12]: > 100 µM (inactive) | GI50 [14]: > 100 µM (inactive) | GI50 [15]: > 100 µM (inactive) | GI50 [16]: > 100 µM (inactive) | GI50 [17]: > 100 µM (inactive) | GI50 [18]: > 100 µM (inactive) | GI50 [19]: > 100 µM (inactive) | GI50 [20]: > 100 µM (inactive)

CC(CC(=O)CO[C@H]1[C@H](O)[C@@H](O)[C@@H](O)[C@@H]2NC(=O)c3c(cc4c(c3O)OCO4)[C@H]21)OC1OC(CO)C(O)C(O)C1O (stereo partly drawn)
GI50 [1]: 0.444 µM (active) | GI50 [2]: 0.495 µM (active) | GI50 [3]: 0.857 µM (active) | GI50 [4]: 0.272 µM (active) | GI50 [5]: 0.218 µM (active) | GI50 [6]: 0.275 µM (active) | GI50 [7]: 0.372 µM (active) | GI50 [8]: 0.51 µM (active) | GI50 [9]: 0.283 µM (active) | GI50 [10]: 0.392 µM (active) | GI50 [11]: 0.441 µM (active) | GI50 [12]: 0.432 µM (active) | GI50 [13]: 0.451 µM (active) | GI50 [14]: 0.269 µM (active) | GI50 [15]: 0.367 µM (active) | GI50 [16]: 0.419 µM (active) | GI50 [17]: 0.322 µM (active) | GI50 [18]: 0.325 µM (active) | GI50 [19]: 0.374 µM (active) | GI50 [20]: 0.408 µM (active)

COc1ccc(-n2c3c(c4cc(O)ccc42)C(=O)c2ccccc2C3=O)cc1
GI50 [1]: 0.682 µM (active) | GI50 [2]: 11.2 µM (inactive) | GI50 [3]: 95.7 µM (inactive) | GI50 [4]: 80.5 µM (inactive) | GI50 [6]: 0.305 µM (active) | GI50 [7]: 15 µM (inactive) | GI50 [8]: 16.9 µM (inactive) | GI50 [9]: 10.7 µM (inactive) | GI50 [10]: 13.8 µM (inactive) | GI50 [11]: 8.97 µM (inactive) | GI50 [12]: 3.97 µM (inactive) | GI50 [13]: 8.38 µM (inactive) | GI50 [14]: 2.84 µM (inactive) | GI50 [15]: 2.14 µM (inactive) | GI50 [16]: 1.05 µM (active) | GI50 [17]: 2.73 µM (inactive) | GI50 [18]: 10.4 µM (inactive) | GI50 [19]: > 100 µM (inactive) | GI50 [20]: 8.55 µM (inactive)

COC1=C(OC)C(=O)C(Cc2c(Cl)nc3sccn23)=C(C)C1=O
GI50 [1]: 12.4 µM (inactive) | GI50 [2]: 14.4 µM (inactive) | GI50 [3]: 14.3 µM (inactive) | GI50 [4]: 15.7 µM (inactive) | GI50 [5]: 15.7 µM (inactive) | GI50 [6]: 13.6 µM (inactive) | GI50 [7]: 2.42 µM (inactive) | GI50 [9]: 10.2 µM (inactive) | GI50 [10]: 8.91 µM (inactive) | GI50 [11]: 5.36 µM (inactive) | GI50 [12]: 12.8 µM (inactive) | GI50 [13]: 12.7 µM (inactive) | GI50 [14]: 16.1 µM (inactive) | GI50 [15]: 14.5 µM (inactive) | GI50 [16]: 12.5 µM (inactive) | GI50 [17]: 4.14 µM (inactive) | GI50 [18]: 5.04 µM (inactive) | GI50 [19]: 13.7 µM (inactive) | GI50 [20]: 12.9 µM (inactive)

CC1OC(=O)C2CC3CCCCC3C(/C=C/C3CCCC(C)N3C)C12 (stereo not drawn)
GI50 [1]: > 100 µM (inactive) | GI50 [2]: > 100 µM (inactive) | GI50 [3]: > 100 µM (inactive) | GI50 [4]: > 100 µM (inactive) | GI50 [5]: > 100 µM (inactive) | GI50 [6]: > 100 µM (inactive) | GI50 [7]: > 100 µM (inactive) | GI50 [8]: > 100 µM (inactive) | GI50 [9]: 90.8 µM (inactive) | GI50 [10]: > 100 µM (inactive) | GI50 [11]: > 100 µM (inactive) | GI50 [12]: > 100 µM (inactive) | GI50 [13]: > 100 µM (inactive) | GI50 [14]: > 100 µM (inactive) | GI50 [15]: > 100 µM (inactive) | GI50 [16]: > 100 µM (inactive) | GI50 [17]: 94.6 µM (inactive) | GI50 [18]: > 100 µM (inactive) | GI50 [19]: > 100 µM (inactive) | GI50 [20]: > 100 µM (inactive)

Nc1ncc(C=O)c(NCC2(CO)CCC2)n1
GI50 [2]: > 10 µM (inactive) | GI50 [3]: 2.25 µM (inactive) | GI50 [4]: 28.4 µM (inactive) | GI50 [5]: > 100 µM (inactive) | GI50 [6]: 36.6 µM (inactive) | GI50 [7]: 13 µM (inactive) | GI50 [8]: 14.5 µM (inactive) | GI50 [9]: 23.9 µM (inactive) | GI50 [10]: 44.9 µM (inactive) | GI50 [11]: 33.5 µM (inactive) | GI50 [12]: 50 µM (inactive) | GI50 [13]: 50.6 µM (inactive) | GI50 [14]: 28.4 µM (inactive) | GI50 [15]: 87.9 µM (inactive) | GI50 [16]: 39.7 µM (inactive) | GI50 [17]: 19.9 µM (inactive) | GI50 [18]: 18 µM (inactive) | GI50 [19]: 89.9 µM (inactive) | GI50 [20]: 15.4 µM (inactive)

N=c1oc2ccc(Cl)cc2cc1C(=O)NC1CCCCC1
GI50 [1]: > 100 µM (inactive) | GI50 [2]: > 100 µM (inactive) | GI50 [3]: > 100 µM (inactive) | GI50 [4]: 51.6 µM (inactive) | GI50 [5]: 32.1 µM (inactive) | GI50 [6]: 55.5 µM (inactive) | GI50 [7]: 39.7 µM (inactive) | GI50 [8]: > 100 µM (inactive) | GI50 [9]: 58.6 µM (inactive) | GI50 [10]: 49.2 µM (inactive) | GI50 [11]: > 100 µM (inactive) | GI50 [12]: 59.6 µM (inactive) | GI50 [13]: 44.4 µM (inactive) | GI50 [14]: > 100 µM (inactive) | GI50 [15]: > 100 µM (inactive) | GI50 [16]: 81.8 µM (inactive) | GI50 [17]: 84.3 µM (inactive) | GI50 [18]: 51.5 µM (inactive) | GI50 [19]: 96.4 µM (inactive)

COC(=O)c1ccc2cc(O)c(O)cc2c1
GI50 [1]: 32.7 µM (inactive) | GI50 [2]: 21.2 µM (inactive) | GI50 [3]: 78.2 µM (inactive) | GI50 [4]: 37.9 µM (inactive) | GI50 [5]: > 68.9 µM (inactive) | GI50 [6]: 41 µM (inactive) | GI50 [7]: > 100 µM (inactive) | GI50 [8]: 32.5 µM (inactive) | GI50 [9]: 42.9 µM (inactive) | GI50 [10]: 34.7 µM (inactive) | GI50 [11]: 26.5 µM (inactive) | GI50 [13]: 31.1 µM (inactive) | GI50 [14]: 48.2 µM (inactive) | GI50 [15]: 16.6 µM (inactive) | GI50 [16]: 40 µM (inactive) | GI50 [17]: 22.1 µM (inactive) | GI50 [18]: 13.2 µM (inactive) | GI50 [19]: 51.4 µM (inactive) | GI50 [20]: 27.9 µM (inactive)
